Source: US20070111981A1, “New (hetero)aryl compounds with MCH antagonistic activity and medicaments comprising these compounds” (priority 2005, published 2007)

molecular target: T1, hMCH-1R (Homo sapiens, UniProt Q99705); assay: MCH-1 receptor binding test (125I-MCH binding to membranes of hMCH-1R transfected CHO/Galpha16 cells); settings: displacement of 125I-MCH, hMCH-1R CHO/Galpha16 membranes
T1 construct: expressed in transfected cells
Procedure: MCH-1 Receptor Binding Test
Method: MCH binding to hMCH-1R transfected cells
Test cell: hMCH-1R stably transfected into CHO/Galphal 6 cells
Membranes from CHO/Galphal6 cells stably transfected with human hMCH-1R are resuspended using a syringe (needle 0.6×25 mm) and diluted in test buffer (50 mM HEPES, 10 mM MgCl2, 2 mM EGTA, pH 7.00; 0.1% bovine serum albumin (protease-free), 0.021% bacitracin, 1 μg/ml aprotinin, 1 μg/ml leupeptin and 1 μM phosphoramidone) to a concentration of 5 to 15 μg/ml.
After the incubation the reaction is filtered using a cell harvester through 0.5% PEI treated fibreglass filters (GF/B, Unifilter Packard). The membrane-bound radioactivity retained on the filter is then determined after the addition of scintillator substance (Packard Microscint 20) in a measuring device (TopCount of Packard).
The non-specific binding is defined as bound radioactivity in the presence of 1 micromolar MCH during the incubation period.
The analysis of the concentration binding curve is carried out on the assumption of one receptor binding site.

T1 sequence (Q99705 whole entry): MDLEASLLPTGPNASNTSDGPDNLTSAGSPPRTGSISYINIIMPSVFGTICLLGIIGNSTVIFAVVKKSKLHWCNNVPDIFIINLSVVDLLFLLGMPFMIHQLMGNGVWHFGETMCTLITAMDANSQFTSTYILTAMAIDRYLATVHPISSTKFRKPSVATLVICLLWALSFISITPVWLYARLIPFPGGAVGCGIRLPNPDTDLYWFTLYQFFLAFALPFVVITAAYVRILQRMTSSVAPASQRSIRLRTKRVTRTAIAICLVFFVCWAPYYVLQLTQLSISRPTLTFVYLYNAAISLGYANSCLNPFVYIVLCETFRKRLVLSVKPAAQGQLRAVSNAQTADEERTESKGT

IC50	Structure (SMILES)
174 nM	COc1ccc(-c2ccc(NCCCc3ccc(CN4CCC(O)CC4)cc3)nn2)cc1 [Example 9.1, 1-(4-{3-[6-(4-Methoxy-phenyl)-pyridazin-3-ylamino]-propyl}-benzyl)-piperidin-4-ol]
172 nM	CCN(CC)CCOc1ccc(OCCOc2ccc(I)cc2Cl)cc1Cl [Example 12.1, (2-{2-Chloro-4-[2-(2-chloro-4-iodo-phenoxy)-ethoxy]-phenoxy}-ethyl)-diethyl-amine]
79 nM	COc1ccc(-c2ccc(CCCNc3ccc(CN4CCC(NC(C)=O)C4)cc3)nn2)cc1 (centres unmarked) [Example 3.30, N-[1-(4-{3-[6-(4-Methoxy-phenyl)-pyridazin-3-yl]-propylamino}-benzyl)-pyrrolidin-3-yl]-acetamide]

system: not given; assay: not given; settings: not given

melting point	Structure (SMILES)
69 to 71 °C	CC1CCN(Cc2ccc(NCCCc3ccc(-c4ccc(Cl)cc4)cc3)cc2)CC1 [Example 1.1, [3-(4′-Chloro-biphenyl-4-yl)-propyl]-[4-(4-methyl-piperidin-1-ylmethyl)-phenyl]-amine]
130 to 133 °C	COc1ccc(-c2ccc(CCCNc3ccc4c(c3)CN(C)CC4)nn2)cc1 [Example 19.1, {3-[6-(4-Methoxy-phenyl)-pyridazin-3-yl]-propyl}-(2-methyl-1,2,3,4-tetrahydro-isoquinolin-7-yl)-amine]
85 to 90 °C	CN(C)Cc1ccc(NCCCc2ccc(-c3ccc(Cl)cc3)cc2)cc1 [Example 4.1, [3-(4′-Chloro-biphenyl-4-yl)-propyl]-(4-dimethylaminomethyl-phenyl)-amine]
200 to 204 °C	Oc1ccc(-c2ccc(CCCNc3ccc(CN4CCC(O)(C(F)(F)F)CC4)cc3)nn2)cc1 [Example 21.1]
170 to 172 °C	OC1(C(F)(F)F)CCN(Cc2ccc(NCCCc3ccc(-c4ccc(Cl)cc4)cc3)nc2)CC1 [Example 5.1]
